Test results from patent US20240238423A9, “TETRAHYDROISOQUINOLINE HETEROBIFUNCTIONAL BCL-XL DEGRADERS” (Treeline Biosciences, Inc., priority 2022, published 2024).
Like-named read-outs stand apart in the source and are kept apart here.

Target: T1, Human BCL-XL protein (N-terminal HiBiT tagged BCL-XL in HT1080 cells) (Homo sapiens, UniProt Q07817)
T1 construct: expressed in transfected cells; host or cells: HT-1080 (ATCC CCL-121), stably transduced with lentivirus pLV-UBC-N-HiBiT-BCL-XL-PGK-puro and selected with puromycin
T1 sequence (Q07817 whole entry): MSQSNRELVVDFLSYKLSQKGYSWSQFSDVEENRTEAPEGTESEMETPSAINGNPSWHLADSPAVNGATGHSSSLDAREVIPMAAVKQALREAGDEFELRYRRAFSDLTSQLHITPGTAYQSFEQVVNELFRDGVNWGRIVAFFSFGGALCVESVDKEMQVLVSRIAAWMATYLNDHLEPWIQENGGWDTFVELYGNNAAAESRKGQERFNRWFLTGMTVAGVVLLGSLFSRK
Test: HiBiT based degradation assay
Assay type: cell-based
Settings: HT1080 cells expressing HiBiT-BCL-XL; for Ymin (6 h) / Ymin (24 h): BCL-XL degradation normalized with DMSO control; for DC50: BCL-XL degradation
Method in brief: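 HT1080 cells stably transduced by lentivirus with N-terminally HiBiT-tagged human BCL-XL and kept under 1 μg/mL puromycin selection were seeded at three thousand cells per well in 40 μL RPMI 1640 into 384-well plates pre-spotted with compounds across a concentration range. Luminescence was read on a PHERAstar FSX, normalized to DMSO, and fitted with a four-parameter logistic model.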

SMILES | Ymin (6 h) | Ymin (24 h) | DC50 (6 h, read-out: EC50 (6 h)) [µM] | DC50 (24 h, read-out: EC50 (24 h)) [µM]
Cc1c(OCCOc2ccc(CC(=O)Nc3cccc4c(C5CCC(=O)NC5=O)nn(C)c34)cc2)cccc1-c1ccc(N2CCc3cccc(C(=O)Nc4nc5ccccc5s4)c3C2)nc1C(=O)O (stereo not shown) [Compound 118, 6-[8-(1,3-benzothiazol-2-ylcarbamoyl)-3,4-dihydro-1H-isoquinolin-2-yl]-3-[3-[2-[4-[2-[[3-(2,6-dioxo-3-piperidyl)-1-methyl-indazol-7-yl]amino]-2-oxo-ethyl]phenoxy]ethoxy]-2-methyl-phenyl]pyridine-2-carboxylic acid] | B (50% ≤ Ymin < 70%) | B (50% ≤ Ymin < 70%) | 0.1 to 1 | 1 to 10
Cc1c(O[C@H]2CC[C@H](CCCN3CCC(c4cccc5c(C6CCC(=O)NC6=O)nn(C)c45)C3)CC2)cccc1-c1ccc(N2CCc3cccc(C(=O)Nc4nc5ccccc5s4)c3C2)nc1C(=O)O (single isomer, unassigned) [Compound 320a] |  | A (Ymin < 50%) |  | < 0.1
Cc1c(Oc2ccc(CC(F)(F)CN3CCN(c4ccc5c(C6CCC(=O)NC6=O)nn(C)c5c4)CC3)cc2)cccc1-c1ccc(N2CCc3cccc(C(=O)Nc4nc5ccccc5s4)c3C2)nc1C(=O)O (stereo not shown) [Compound 234, 6-[8-(1,3-benzothiazol-2-ylcarbamoyl)-3,4-dihydro-1H-isoquinolin-2-yl]-3-[3-[4-[3-[4-[3-(2,6-dioxo-3-piperidyl)-1-methyl-indazol-6-yl]piperazin-1-yl]-2,2-difluoro-propyl]phenoxy]-2-methyl-phenyl]pyridine-2-carboxylic acid] | C (Ymin ≥ 70%) | B (50% ≤ Ymin < 70%) | 0.1 to 1 | < 0.1
Cc1c(OCCCc2ccc(CC(=O)Nc3ccc4c(C5CCC(=O)NC5=O)nn(C)c4c3)nc2)cccc1-c1ccc(N2CCc3cccc(C(=O)Nc4nc5ccccc5s4)c3C2)nc1C(=O)O (stereo not shown) [Compound 280, 6-[8-(1,3-benzothiazol-2-ylcarbamoyl)-3,4-dihydro-1H-isoquinolin-2-yl]-3-[3-[3-[6-[2-[[3-(2,6-dioxo-3-piperidyl)-1-methyl-indazol-6-yl]amino]-2-oxo-ethyl]-3-pyridyl]propoxy]-2-methyl-phenyl]pyridine-2-carboxylic acid] |  | B (50% ≤ Ymin < 70%) |  | < 0.1
Cc1c(OCCCN2CCN(CCCOc3ccc4c(C5CCC(=O)NC5=O)nn(C)c4c3)CC2)cccc1-c1ccc(N2CCc3cccc(C(=O)Nc4nc5ccccc5s4)c3C2)nc1C(=O)O (stereo not shown) [Compound 133, 6-(8-(Benzo[d]thiazol-2-ylcarbamoyl)-3,4-dihydroisoquinolin-2(1H)-yl)-3-(3-(3-(4-(3-((3-(2,6-dioxopiperidin-3-yl)-1-methyl-1H-indazol-6-yl)oxy)propyl)piperazin-1-yl)propoxy)-2-methylphenyl)picolinic acid] | A (Ymin < 50%) | A (Ymin < 50%) | < 0.1 | < 0.1
Cc1cc(OCCCC2CCN(CC(=O)Nc3ccc4c(C5CCC(=O)NC5=O)nn(C)c4c3)CC2)ccc1-c1ccc(N2CCc3cccc(C(=O)Nc4nc5ccccc5s4)c3C2)nc1C(=O)O (stereo not shown) [Compound 184, 6-[8-(1,3-benzothiazol-2-ylcarbamoyl)-3,4-dihydro-1H-isoquinolin-2-yl]-3-[4-[3-[1-[2-[[3-(2,6-dioxo-3-piperidyl)-1-methyl-indazol-6-yl]amino]-2-oxo-ethyl]-4-piperidyl]propoxy]-2-methyl-phenyl]pyridine-2-carboxylic acid] | A (Ymin < 50%) | A (Ymin < 50%) | < 0.1 | < 0.1
Cc1cc(OCCCN2CCN(CC(=O)N3CCN(c4cccc5c(C6CCC(=O)NC6=O)nn(C)c45)CC3)CC2)ccc1-c1ccc(N2CCc3cccc(C(=O)Nc4nc5ccccc5s4)c3C2)nc1C(=O)O (stereo not shown) [Compound 152, 6-(8-(Benzo[d]thiazol-2-ylcarbamoyl)-3,4-dihydroisoquinolin-2(1H)-yl)-3-(4-(3-(4-(2-(4-(3-(2,6-dioxopiperidin-3-yl)-1-methyl-1H-indazol-7-yl)piperazin-1-yl)-2-oxoethyl)piperazin-1-yl)propoxy)-2-methylphenyl)picolinic acid] | B (50% ≤ Ymin < 70%) | A (Ymin < 50%) | < 0.1 | < 0.1
Cc1c(OCCCC2CCN(Cc3ccc4c(C5CCC(=O)NC5=O)nn(C)c4c3)CC2)cccc1-c1ccc(N2CCc3cccc(C(=O)Nc4nc5ccccc5s4)c3C2)nc1C(=O)O (stereo not shown) [Compound 304, 6-(8-(benzo[d]thiazol-2-ylcarbamoyl)-3,4-dihydroisoquinolin-2(1H)-yl)-3-(3-(3-(1-((3-(2,6-dioxopiperidin-3-yl)-1-methyl-1H-indazol-6-yl)methyl)piperidin-4-yl)propoxy)-2-methylphenyl)picolinic acid] |  | B (50% ≤ Ymin < 70%) |  | < 0.1
Cc1c(O[C@H]2CC[C@H](CCCCN3CC[C@H](c4cccc5c(C6CCC(=O)NC6=O)nn(C)c45)C3)CC2)cccc1-c1ccc(N2CCc3cccc(C(=O)Nc4nc5ccccc5s4)c3C2)nc1C(=O)O (single isomer, unassigned) [Compound 321a] |  | A (Ymin < 50%) |  | < 0.1
Cc1c(O[C@H]2CC[C@H](CCCCN3CCC(Oc4cccc5c(C6CCC(=O)NC6=O)nn(C)c45)CC3)CC2)cccc1-c1ccc(N2CCc3cccc(C(=O)Nc4nc5ccccc5s4)c3C2)nc1C(=O)O (stereo partly shown) [Compound 327a, 6-(8-(benzo[d]thiazol-2-ylcarbamoyl)-3,4-dihydroisoquinolin-2(1H)-yl)-3-(3-(((1s,4r)-4-(4-(4-((3-(2,6-dioxopiperidin-3-yl)-1-methyl-1H-indazol-7-yl)oxy)piperidin-1-yl)butyl)cyclohexyl)oxy)-2-methylphenyl)picolinic acid] |  | A (Ymin < 50%) |  | < 0.1
Cc1c(O[C@H](C)CCC2CCN(CC(=O)Nc3cccc4c(C5CCC(=O)NC5=O)nn(C)c34)CC2)cccc1-c1ccc(N2CCc3cccc(C(=O)Nc4nc5ccccc5s4)c3C2)nc1C(=O)O (stereo partly drawn) [Compound 169b, 6-[8-(1,3-benzothiazol-2-ylcarbamoyl)-3,4-dihydro-1H-isoquinolin-2-yl]-3-[3-[(1R)-3-[1-[2-[[3-(2,6-dioxo-3-piperidyl)-1-methyl-indazol-7-yl]amino]-2-oxo-ethyl]-4-piperidyl]-1-methyl-propoxy]-2-methyl-phenyl] pyridine-2-carboxylic acid] | C (Ymin ≥ 70%) | B (50% ≤ Ymin < 70%) | < 0.1 | < 0.1
Cc1c(OCCCN2CCN(CC(=O)Nc3cccc4c(C5CCC(=O)NC5=O)nn(C)c34)[C@@H](C(F)(F)F)C2)cccc1-c1ccc(N2CCc3cccc(C(=O)Nc4nc5ccccc5s4)c3C2)nc1C(=O)O (stereo partly drawn) [Compound 218a, 6-(8-(benzo[d]thiazol-2-ylcarbamoyl)-3,4-dihydroisoquinolin-2(1H)-yl)-3-(3-(3-((3R)-4-(2-((3-(2,6-dioxopiperidin-3-yl)-1-methyl-1H-indazol-7-yl)amino)-2-oxoethyl)-3-(trifluoromethyl)piperazin-1-yl)propoxy)-2-methylphenyl)picolinic acid] | C (Ymin ≥ 70%) | B (50% ≤ Ymin < 70%) | 1 to 10 | 0.1 to 1
Cc1c(OCCC2CCN(CC3CCN(c4cccc5c(C6CCC(=O)NC6=O)nn(C)c45)CC3)CC2)cccc1-c1ccc(N2CCc3cccc(C(=O)Nc4nc5ccccc5s4)c3C2)nc1C(=O)O (stereo not shown) [Compound 261, 6-[8-(1,3-benzothiazol-2-ylcarbamoyl)-3,4-dihydro-1H-isoquinolin-2-yl]-3-[3-[2-[1-[[1-[3-(2,6-dioxo-3-piperidyl)-1-methyl-indazol-7-yl]-4-piperidyl]methyl]-4-piperidyl]ethoxy]-2-methyl-phenyl]pyridine-2-carboxylic acid] |  | A (Ymin < 50%) |  | < 0.1
Cc1c(O[C@H]2CC[C@H](CCCC(C)(C)N3CCN(c4ccc5c(C6CCC(=O)NC6=O)nn(C)c5c4)CC3)CC2)cccc1-c1ccc(N2CCc3cccc(C(=O)Nc4nc5ccccc5s4)c3C2)nc1C(=O)O (stereo partly shown) [Compound 350a, 6-(8-(benzo[d]thiazol-2-ylcarbamoyl)-3,4-dihydroisoquinolin-2(1H)-yl)-3-(3-(((1s,4r)-4-(4-(4-(3-(2,6-dioxopiperidin-3-yl)-1-methyl-1H-indazol-6-yl)piperazin-1-yl)-4-methylpentyl)cyclohexyl)oxy)-2-methylphenyl)picolinic acid] |  | A (Ymin < 50%) |  | < 0.1
Cc1c(OCCC[C@H]2CCN(CC(=O)Nc3ccc4c(C5CCC(=O)NC5=O)nn(C)c4c3)C2)cccc1-c1ccc(N2CCc3cccc(C(=O)Nc4nc5ccccc5s4)c3C2)nc1C(=O)O (stereo partly drawn) [Compound 160b, 6-(8-(benzo[d]thiazol-2-ylcarbamoyl)-3,4-dihydroisoquinolin-2(1H)-yl)-3-(3-(3-((3S)-1-(2-((3-(2,6-dioxopiperidin-3-yl)-1-methyl-1H-indazol-6-yl)amino)-2-oxoethyl)pyrrolidin-3-yl)propoxy)-2-methylphenyl)picolinic acid] |  | A (Ymin < 50%) |  | < 0.1
Cc1c(OCCCC[C@@H]2CCCN(CC(=O)Nc3cccc4c(C5CCC(=O)NC5=O)nn(C)c34)C2)cccc1-c1ccc(N2CCc3cccc(C(=O)Nc4nc5ccccc5s4)c3C2)nc1C(=O)O (stereo partly drawn) [Compound 186a, 6-[8-(1,3-benzothiazol-2-ylcarbamoyl)-3,4-dihydro-1H-isoquinolin-2-yl]-3-[3-[4-[(3R)-1-[2-[[3-(2,6-dioxo-3-piperidyl)-1-methyl-indazol-7-yl]amino]-2-oxo-ethyl]-3-piperidyl]butoxy]-2-methyl-phenyl]pyridine-2-carboxylic acid] |  | B (50% ≤ Ymin < 70%) |  | < 0.1
